Measurements from US8021846B2, “Method for determining azole resistance in Candida glabrata” (Medical Diagnostic Laboratories, LLC, priority 2008, dated 2011).
Values after ≈ are worked out from the molar mass of the structure shown.

System: Candida glabrata clinical isolates
Assay: Microbroth dilution assay (CLSI M27-A2) of azole susceptibility of clinical isolates;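 also: growth of C. glabrata cervicovaginal isolates in 96-well plates, absorbance at 620 nm minus medium background, 35 °C for 24 and 48 h, DMSO ≦0.5%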
Conditions: for % of isolates S (susceptible) / No. of isolates S (susceptible): 175 C. glabrata cervicovaginal clinical isolates, S = MIC ≦8 μg/ml fluconazole, ≦1 μg/ml voriconazole, proposed breakpoints for voriconazole and miconazole; for MIC: Nakaseomyces glabratus
From the text: One hundred seventy-five (175) Candida glabrata clinical isolates were retrieved from cervicovaginal swabs. Clinical isolates were obtained from cervicovaginal swabs of female patients suspected of having vulvovaginal candidiasis (WC) from across the United States. Candida glabrata PCR positive swabs were struck out on Candida CHROMagar, and individual Candida glabrata colonies were isolated for susceptibility testing using the microbroth dilution assay according to the Clinical and Laboratory Standards Institute protocol. Susceptibilities of these isolates to triazole anti-fungal drugs (e.g., fluconazole, voriconazole, and miconazole) were determined.
The microbroth dilution assays were performed using RPMI 1640 (minus glutamine, and 0.165 M MOPS to pH 7.0) (Sigma, St. Louis, Mo.). […] Drugs were obtained from the following sources: fluconazole (LKT Laboratories, St. Paul, Minn.), miconazole (MP Biomedicals, Inc., Solon, Ohio) and voriconazole (Pfizer, New York, N.Y.). All drugs were dissolved in dimethyl sulfoxide (DMSO) to a final concentration of ≦0.5% in all experiments at which C. glabrata growth was not affected.
Protocols for microbroth dilution assays (i.e., susceptibility testing) was performed by MBD according to the Clincial and Laboratory Standards Institute (CLSI) guidelines outlined in M27-A2. Azole antifungals and concentrations tested were fluconazole (2 to 128 μg/ml), voriconazole (8 to 0.125 μg/ml), and miconazole (8 to 0.125 μg/ml). Candida glabrata isolates were growth in RPMI 1640 media (minus glutamine, plus 2% glucose, and 0.165M MOPS to pH 7.0) to mid-log phase and cultures were diluted to 5×10^3 cells/ml in RPMI 1640 medium. Aliquots of 100 μl were distributed to wells of a 96-well flat-bottom plate, except for row A which received 200 μl. Drug was added to row A at the desired concentration (fluconazole, 128 μg/ml, voriconazole 8 μg/ml, and miconazole 8 μg/ml) and then serially two-fold diluted to rows B through G; row H served as a drug-free control. Plates were incubated at 35° C. for 24 and 48 hours. Absorbance at 620 nm was read with a microplate reader (Beckman Coulter, Inc., Fullerton, Calif.); background due to medium was subtracted from all readings.
The MIC was defined as the lowest concentration inhibiting growth at least 80% relative to the drug-free control.

**Q.** `OC(Cn1cncn1)(Cn1cncn1)c1ccc(F)cc1F` [Fluconazole, fluconazole] was tested. Which “% of isolates S (susceptible)” value did it give?
**A.** The value was 30.9%.

**Q.** What about the “No. of isolates S (susceptible)” value of the same compound?
**A.** The value was 54.

**Q.** And the MIC (isolates of swab S1 (susceptible group))?
**A.** Its MIC is 8 mg/L (≈ 26.1 µM).

**Q.** And the MIC (isolates of swab S2 (susceptible group))?
**A.** The MIC was 4 mg/L (≈ 13.1 µM).

**Q.** And the MIC (isolates of swab S3 (susceptible group))?
**A.** Its MIC is 4 mg/L (≈ 13.1 µM).

**Q.** What about the MIC (isolates of swab S4 (susceptible group)) of the same compound?
**A.** The MIC was 2 mg/L (≈ 6.53 µM).

**Q.** What about the MIC (isolates of swab S5 (susceptible group)) of the same compound?
**A.** The MIC was 4 mg/L (≈ 13.1 µM).

**Q.** What about the MIC (isolates of swab S6 (susceptible group)) of the same compound?
**A.** The MIC was 4 mg/L (≈ 13.1 µM).

**Q.** And the MIC (isolates of swab S7 (susceptible group))?
**A.** Its MIC is 4 mg/L (≈ 13.1 µM).

**Q.** And the MIC (isolates of swab S8 (susceptible group))?
**A.** The MIC was 4 mg/L (≈ 13.1 µM).

**Q.** And the MIC (isolates of swab S9 (susceptible group))?
**A.** Its MIC is 2 mg/L (≈ 6.53 µM).

**Q.** What about the MIC (isolates of swab S11 (S-DD group)) of the same compound?
**A.** The MIC was 16 mg/L (≈ 52.2 µM).

**Q.** What about the MIC (isolates of swab S12 (S-DD group)) of the same compound?
**A.** The MIC was 16 mg/L (≈ 52.2 µM).

**Q.** What about the MIC (isolates of swab S13 (S-DD group)) of the same compound?
**A.** Its MIC is 16 mg/L (≈ 52.2 µM).

**Q.** What about the MIC (isolates of swab S14 (S-DD group)) of the same compound?
**A.** The MIC was 16 mg/L (≈ 52.2 µM).

**Q.** What about the MIC (isolates of swab S15 (S-DD group)) of the same compound?
**A.** Its MIC is 32 mg/L (≈ 104 µM).

**Q.** What about the MIC (isolates of swab S16 (S-DD group)) of the same compound?
**A.** Its MIC is 16 mg/L (≈ 52.2 µM).

**Q.** What about the MIC (isolates of swab S17 (S-DD group)) of the same compound?
**A.** Its MIC is 16 mg/L (≈ 52.2 µM).

**Q.** And the MIC (isolates of swab S18 (S-DD group))?
**A.** Its MIC is 16 mg/L (≈ 52.2 µM).

**Q.** And the MIC (isolates of swab S19 (S-DD group))?
**A.** Its MIC is 32 mg/L (≈ 104 µM).

**Q.** What about the MIC (isolates of swab S20 (S-DD group)) of the same compound?
**A.** Its MIC is 32 mg/L (≈ 104 µM).

**Q.** And the MIC (isolates of swab S21 (resistant group))?
**A.** The MIC was 128 mg/L (≈ 418 µM).

**Q.** What about the MIC (isolates of swab S22 (resistant group)) of the same compound?
**A.** Its MIC is 128 mg/L (≈ 418 µM).

**Q.** What about the MIC (isolates of swab S23 (resistant group)) of the same compound?
**A.** The MIC was 128 mg/L (≈ 418 µM).

**Q.** And the MIC (isolates of swab S24 (resistant group))?
**A.** The MIC was 128 mg/L (≈ 418 µM).

**Q.** And the MIC (isolates of swab S25 (resistant group))?
**A.** Its MIC is 64 mg/L (≈ 209 µM).

**Q.** What about the MIC (isolates of swab S26 (resistant group)) of the same compound?
**A.** The MIC was 128 mg/L (≈ 418 µM).

**Q.** And the MIC (isolates of swab S27 (resistant group))?
**A.** Its MIC is 64 mg/L (≈ 209 µM).

**Q.** What about the MIC (isolates of swab S28 (resistant group)) of the same compound?
**A.** Its MIC is 128 mg/L (≈ 418 µM).

**Q.** What about the MIC (isolates of swab S29 (resistant group)) of the same compound?
**A.** Its MIC is 64 mg/L (≈ 209 µM).

**Q.** What about the MIC (swab S10, the single resistant isolate) of the same compound?
**A.** The MIC was 128 mg/L (≈ 418 µM).

**Q.** And the MIC (swab S10, the two susceptible isolates)?
**A.** The MIC was 8 mg/L (≈ 26.1 µM).

**Q.** For `Clc1ccc(COC(Cn2ccnc2)c2ccc(Cl)cc2Cl)c(Cl)c1` (stereo not shown) [Miconazole, miconazole], which “% of isolates S (susceptible)” value is on record?
**A.** The value was 100.0%.

**Q.** What about the “No. of isolates S (susceptible)” value of the same compound?
**A.** Its value is 175.

**Q.** And the “Susceptibility of the clinical isolates (in words)” value (175 C. glabrata clinical isolates)?
**A.** Its value is “All of the clinical isolates were susceptible”.

**Q.** For `C[C@@H](c1ncncc1F)[C@](O)(Cn1cncn1)c1ccc(F)cc1F` [Voriconazole, voriconazole], which “% of isolates S (susceptible)” value is on record?
**A.** Its value is 62.3%.

**Q.** What about the “No. of isolates S (susceptible)” value of the same compound?
**A.** The value was 109.
